Test results taken from the NIST ThermoML archive (doi:10.1021/acs.jced.6b00269).
Numbers after ± are expanded uncertainties.

Details: for viscosity / mass density: 101.33 kPa, Liquid; for viscosity: Cone and plate viscometry; for mass density: Vibrating tube method; for Normal melting temperature: Crystal, DTA; for Glass transition temperature: DSC

SMILES	viscosity (278.15 K)	viscosity (283.15 K)	mass density (283.15 K)	viscosity (288.15 K)	mass density (288.15 K)	viscosity (293.15 K)	mass density (293.15 K)	mass density (295.15 K)	viscosity (298.15 K)	mass density (298.15 K)	viscosity (303.15 K)	mass density (303.15 K)	viscosity (308.15 K)	mass density (308.15 K)	viscosity (313.15 K)	mass density (313.15 K)	viscosity (318.15 K)	mass density (318.15 K)	viscosity (323.15 K)	mass density (323.15 K)	further results
CCCCCCC[P+](CC)(CC)CC.O=[N+]([O-])c1cn[n-]c1 [triethylheptylphosphonium 4-nitropyrazolide]	1000 ± 90 mPa·s	657 ± 54 mPa·s	1047.1 ± 5.9 kg/m3	443 ± 35 mPa·s	1044 ± 5.9 kg/m3	309 ± 23 mPa·s	1040.9 ± 5.9 kg/m3	1039.7 ± 5.8 kg/m3	223 ± 16 mPa·s	1037.8 ± 5.8 kg/m3	165 ± 12 mPa·s	1034.8 ± 5.8 kg/m3	126 ± 9 mPa·s	1031.8 ± 5.8 kg/m3	97 ± 7 mPa·s	1028.8 ± 5.7 kg/m3	77 ± 5 mPa·s	1026 ± 5.7 kg/m3	62 ± 4 mPa·s	1023.1 ± 5.7 kg/m3	mass density (328.15 K): 1020.2 ± 5.6 kg/m3; mass density (333.15 K): 1017.3 ± 5.6 kg/m3; mass density (338.15 K): 1014.5 ± 5.6 kg/m3; mass density (343.15 K): 1011.6 ± 5.5 kg/m3; mass density (348.15 K): 1008.8 ± 5.5 kg/m3; mass density (353.15 K): 1006 ± 5.5 kg/m3; Normal melting temperature: 16 ± 2 °C; Glass transition temperature: -72 ± 2 °C
CCCCCCn1cc[n+](C)c1.O=[N+]([O-])c1cn[n-]c1 [1-hexyl-3-methylimidazolium 4-nitropyrazolide]	3310 ± 340 mPa·s	1810 ± 170 mPa·s	1133.6 ± 7 kg/m3	1040 ± 92 mPa·s	1130 ± 6.9 kg/m3	633 ± 52 mPa·s	1126.6 ± 6.9 kg/m3	1125.3 ± 6.9 kg/m3	407 ± 32 mPa·s	1123.3 ± 6.8 kg/m3	275 ± 20 mPa·s	1120 ± 6.8 kg/m3	192 ± 14 mPa·s	1116.6 ± 6.8 kg/m3	139 ± 10 mPa·s	1113.4 ± 6.7 kg/m3	102 ± 7 mPa·s	1110.2 ± 6.7 kg/m3	79 ± 5 mPa·s	1107 ± 6.6 kg/m3	viscosity (328.15 K): 63 ± 4 mPa·s; mass density (328.15 K): 1103.8 ± 6.6 kg/m3; viscosity (333.15 K): 51 ± 3 mPa·s; mass density (333.15 K): 1100.6 ± 6.6 kg/m3; mass density (338.15 K): 1097.4 ± 6.5 kg/m3; mass density (343.15 K): 1094.2 ± 6.5 kg/m3; mass density (348.15 K): 1091.1 ± 6.5 kg/m3; mass density (353.15 K): 1087.9 ± 6.4 kg/m3; Normal melting temperature: 33 ± 2 °C; Glass transition temperature: -56 ± 2 °C
CCCCCCCCCCCCCC[P+](CCCCCC)(CCCCCC)CCCCCC.N#Cc1nc[n-]c1C#N [trihexyl(tetradecyl)phosphonium 4,5-dicyanoimidazolide]	2490 ± 240 mPa·s	1630 ± 150 mPa·s	928.9 ± 4.7 kg/m3	1090 ± 100 mPa·s	925.7 ± 4.7 kg/m3	754 ± 63 mPa·s	922.6 ± 4.7 kg/m3	921.5 ± 4.7 kg/m3	535 ± 43 mPa·s	919.7 ± 4.7 kg/m3	391 ± 30 mPa·s	916.8 ± 4.6 kg/m3	291 ± 21 mPa·s	913.9 ± 4.6 kg/m3	220 ± 16 mPa·s	911 ± 4.6 kg/m3	171 ± 12 mPa·s	908.1 ± 4.6 kg/m3	135 ± 9 mPa·s	905.2 ± 4.5 kg/m3	viscosity (328.15 K): 108 ± 7 mPa·s; mass density (328.15 K): 902.4 ± 4.5 kg/m3; viscosity (333.15 K): 88 ± 6 mPa·s; mass density (333.15 K): 899.6 ± 4.5 kg/m3; viscosity (338.15 K): 73 ± 5 mPa·s; mass density (338.15 K): 896.7 ± 4.5 kg/m3; mass density (343.15 K): 893.9 ± 4.5 kg/m3; mass density (348.15 K): 891 ± 4.4 kg/m3; mass density (353.15 K): 888.2 ± 4.4 kg/m3; Glass transition temperature: -78 ± 2 °C
CC(=O)[O-].CCCCCCCCCCCCCC[P+](CCCCCC)(CCCCCC)CCCCCC [trihexyl(tetradecyl)phosphonium acetate]	1820 ± 170 mPa·s	1200 ± 110 mPa·s	895 ± 4.5 kg/m3	814 ± 69 mPa·s	891.9 ± 4.4 kg/m3	566 ± 45 mPa·s	888.9 ± 4.4 kg/m3	887.6 ± 4.4 kg/m3	406 ± 31 mPa·s	885.8 ± 4.4 kg/m3	298 ± 22 mPa·s	882.8 ± 4.4 kg/m3	224 ± 16 mPa·s	879.8 ± 4.3 kg/m3	172 ± 12 mPa·s	876.8 ± 4.3 kg/m3	135 ± 9 mPa·s	873.7 ± 4.3 kg/m3	107 ± 7 mPa·s	870.7 ± 4.3 kg/m3	mass density (328.15 K): 867.7 ± 4.3 kg/m3; mass density (333.15 K): 864.7 ± 4.2 kg/m3; mass density (338.15 K): 861.7 ± 4.2 kg/m3; mass density (343.15 K): 858.7 ± 4.2 kg/m3; mass density (348.15 K): 855.7 ± 4.2 kg/m3; mass density (353.15 K): 852.7 ± 4.2 kg/m3
CCCCCCCC[P+](CC)(CC)CC.Cc1ncc([N+](=O)[O-])[n-]1 [triethyloctylphosphonium 2-methyl-5-nitroimidazolide]	3720 ± 390 mPa·s	2280 ± 220 mPa·s	1037.8 ± 5.8 kg/m3	1440 ± 130 mPa·s	1034.6 ± 5.8 kg/m3	940 ± 81 mPa·s	1031.5 ± 5.8 kg/m3	1030.3 ± 5.7 kg/m3	637 ± 52 mPa·s	1028.6 ± 5.7 kg/m3	446 ± 35 mPa·s	1025.6 ± 5.7 kg/m3	321 ± 24 mPa·s	1022.7 ± 5.7 kg/m3	237 ± 17 mPa·s	1019.8 ± 5.6 kg/m3	179 ± 13 mPa·s	1016.9 ± 5.6 kg/m3	138 ± 9 mPa·s	1014.1 ± 5.6 kg/m3	viscosity (328.15 K): 109 ± 7 mPa·s; mass density (328.15 K): 1011.2 ± 5.5 kg/m3; viscosity (333.15 K): 80 ± 5 mPa·s; mass density (333.15 K): 1008.4 ± 5.5 kg/m3; mass density (338.15 K): 1005.6 ± 5.5 kg/m3; mass density (343.15 K): 1002.7 ± 5.4 kg/m3; mass density (348.15 K): 999.9 ± 5.4 kg/m3; mass density (353.15 K): 997.1 ± 5.4 kg/m3; Glass transition temperature: -67 ± 2 °C
